These are literature values, as cited in patent publication US10273202B2, “Nitroxyl progenitor compounds and methods of use” (The Johns Hopkins University, priority 2004, dated 2019).

Where two headings read alike, the source gives them in different places.

In this data set the test system is dog with congestive heart failure. The note with it: CHF dogs.
Setting [1] is: 5-10 μg/kg/min for 15 min i.v., n=8.

As for `[Na+].[Na+].[O-][N+]([O-])=NO` [AS, Angeli's salt], under setting [1], the “Ees, % from baseline” value is “+46 ± 8%”; the “LVEDD, % from baseline” value is −3.8 ± 1%; the “LVEDP, % from baseline” value is on record as −50 ± 12%; the “LVESD, % from baseline” value was −3.9 ± 1%. For the same molecule, under setting [1], the “LVESP, % from baseline” value was −13 ± 2%; the “RT, % from baseline” value is given as −12 ± 5%; the “Tau, % from baseline” value is listed as −18 ± 2%. Besides, for the setting “5-10 μg/kg/min, + volume”, the “Ees, % from baseline” value is on record as “+37 ± 5%”; the “LVEDD, % from baseline” value was −1.7 ± 1%; the “LVEDP, % from baseline” value was −34 ± 19%; the “LVESD, % from baseline” value is listed as −3.0 ± 0.5%. Besides, where the note is “5-10 μg/kg/min, + volume”, the “LVESP, % from baseline” value is given as −9.9 ± 2%; the “RT, % from baseline” value is reported as −14 ± 4%; the “Tau, % from baseline” value is given as −15 ± 3%.
